According to patent publication US20240058450A1, “BCL-XL Inhibitory Compounds Having Low Cell Permeability and Antibody Drug Conjugates Including the Same” (AbbVie Inc., priority 2014, published 2024):
pKi: −log10 of the molar value. Like-named read-outs stand apart in the source and are kept apart here.

Tests used:
Bcl-xL = Bcl-xL (Homo sapiens, UniProt Q07817); assay: Time Resolved-Fluorescence Resonance Energy Transfer (TR-FRET) binding assay, competition with probe F-Bak; conditions: for Ki: in the presence of 1% HS, read-out: Bcl-xL Binding Ki (nM, 1% HS); for pKi: without HS, read-out: Bcl-xL Binding Ki
Experimental: Tb-anti-GST antibody was purchased from Invitrogen (Catalog No. PV4216).
For the assay, test compounds were serially diluted in DMSO starting at 50 μM (2× starting concentration; 10% DMSO) and 10 μL transferred into a 384-well plate. 10 μL of a protein/probe/antibody mix was then added to each well at final concentrations listed below:
The samples were then mixed on a shaker for 1 minute and incubated for an additional 2 hours at room temperature. For each assay plate, a probe/antibody and protein/antibody/probe mixture were included as a negative and a positive control, respectively. Fluorescence was measured on the Envision (Perkin Elmer) using a 340/35 nm excitation filter and 520/525 (F-Bak) and 495/510 nm (Tb-labeled anti-his antibody) emission filters. Dissociation constants (Ki) were determined using Wang's equation (Wang, 1995, FEBS Lett. 360:111-114). The TR-FRET assay can be performed in the presence of varying concentrations of human serum (HS) or fetal bovine serum (FBS). Compounds were tested both without HS and in the presence of 1% HS.

[1] = test system: Molt-4 human acute lymphoblastic leukemia cells; assay: Molt-4 cell viability assay (CellTiter-Glo, 48 hours, 10% HS); format: cell-based; conditions: Homo sapiens, MOLT-4, 48 h, non-permeabilized cells
Experimental: The ability of Bcl-xL inhibitors that are able to traverse cell membranes to inhibit Bcl-xL can be determined in cell-based killing assays using a variety of cell lines and mouse tumor models. For example, their activity on cell viability can be assessed on a panel of cultured tumorigenic and non-tumorigenic cell lines, as well as primary mouse or human cell populations.
In one exemplary set of conditions, Molt-4 (ATCC, Manassas, VA) human acute lymphoblastic leukemia cells were plated 12,500 cells per well in 384-well tissue culture plates (Corning, Corning, NY) in a total volume of 25 μL tissue culture medium supplemented with 10% human serum (Sigma-Aldrich, St. Louis, MO) and treated with a 3-fold serial dilution of the compounds of interest from 10 μM to 0.0005 μM. Each concentration was tested in duplicate at least 3 separate times. The number of viable cells following 48 hours of compound treatment was determined using the CellTiter-Glo®, Luminescent Cell Viability Assay according to the manufacturer's recommendations (Promega Corp., Madison, WI). Compounds were tested in the presence of 10% HS.

Bcl-xL, sequence (Q07817 whole entry): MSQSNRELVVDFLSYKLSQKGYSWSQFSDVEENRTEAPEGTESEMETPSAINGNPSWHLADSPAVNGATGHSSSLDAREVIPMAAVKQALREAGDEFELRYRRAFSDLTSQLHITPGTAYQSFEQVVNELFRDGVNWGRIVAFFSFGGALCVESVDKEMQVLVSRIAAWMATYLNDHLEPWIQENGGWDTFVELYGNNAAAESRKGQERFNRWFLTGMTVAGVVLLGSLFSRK

Row | SMILES | Ki (Bcl-xL) | pKi (Bcl-xL) | EC50 [1]
1 | Cc1c(-c2ccc(N3CCc4cccc(C(=O)Nc5nc6ccccc6s5)c4C3)nc2C(=O)O)cnn1CC12CC3(C)CC(C)(C1)CC(OCCNCCC(=O)NC(CO)(CO)CO)(C3)C2 [Example 1.84, 6-[8-(1,3-benzothiazol-2-ylcarbamoyl)-3,4-dihydroisoquinolin-2 (1H)-yl]-3-{1-[(3-{2-[(3-{[1,3-dihydroxy-2-(hydroxymethyl)propan-2-yl]amino}-3-oxopropyl)amino]ethoxy}-5,7-dimethyltricyclo[3.3.1.1^3,7]dec-1-yl)methyl]-5-methyl-1H-pyrazol-4-yl}pyridine-2-carboxylic acid] | 1.2 nM | 10.16 | 259 nM
2 | Cc1c(-c2ccc(N3CCc4cccc(C(=O)Nc5nc6ccccc6s5)c4C3)nc2C(=O)O)cnn1CC12CC3(C)CC(C)(C1)CC(OCCN(CCS(=O)(=O)O)C1CNC1)(C3)C2 [Example 1.60, 3-{1-[(3-{2-[azetidin-3-yl(2-sulfoethyl)amino]ethoxy}-5,7-dimethyltricyclo[3.3.1.1^3,7]dec-1-yl)methyl]-5-methyl-1H-pyrazol-4-yl}-6-[8-(1,3-benzothiazol-2-ylcarbamoyl)-3,4-dihydroisoquinolin-2 (1H)-yl]pyridine-2-carboxylic acid] | 0.049 nM | > 12.00 | 425 nM
3 | Cc1c(-c2ccc(N3CCc4cccc(C(=O)Nc5nc6ccccc6s5)c4C3)nc2C(=O)O)cnn1CC12CC3(C)CC(C)(C1)CC(OCCOCCNCCCP(=O)(O)O)(C3)C2 [Example 1.16, 6-[8-(1,3-benzothiazol-2-ylcarbamoyl)-3,4-dihydroisoquinolin-2 (1H)-yl]-3-(1-{[3,5-dimethyl-7-(2-{2-[(3-phosphonopropyl)amino]ethoxy}ethoxy)tricyclo[3.3.1.1^3,7]dec-1-yl]methyl}-5-methyl-1H-pyrazol-4-yl}pyridine-2-carboxylic acid] | 0.17 nM | > 12.00 | 218 nM
4 | Cc1c(-c2ccc(N3CCc4cccc(C(=O)Nc5nc6ccccc6s5)c4C3)nc2C(=O)O)cnn1CC12CC3(C)CC(C)(CC(CCCNCCS(=O)(=O)O)(C3)C1)C2 [Example 1.91, 6-{8-[(1,3-benzothiazol-2-yl)carbamoyl]-3,4-dihydroisoquinolin-2 (1H)-yl}-3-{1-[(3,5-dimethyl-7-{3-[(2-sulfoethyl)amino]propyl}tricyclo[3.3.1.1^3,7]decan-1-yl)methyl]-5-methyl-1H-pyrazol-4-yl}pyridine-2-carboxylic acid] | 2.8 nM | 10.19 | 
5 | Cc1c(-c2ccc(-c3ccc4c(c3)N(C(=O)Nc3nc5ccccc5s3)CCC4)nc2C(=O)O)cnn1CC12CC3(C)CC(C)(C1)CC(OCCNCCC(=O)O)(C3)C2 [Example 1.62, 6-[1-(1,3-benzothiazol-2-ylcarbamoyl)-1,2,3,4-tetrahydroquinolin-7-yl]-3-{1-[(3-{2-[(2-carboxyethyl)amino]ethoxy}-5,7-dimethyltricyclo[3.3.1.1^3,7]dec-1-yl)methyl]-5-methyl-1H-pyrazol-4-yl)pyridine-2-carboxylic acid] | 0.2 nM | > 12.00 | 153 nM
6 | Cc1c(-c2ccc(-c3ccc4nccc(C(=O)Nc5nc6ccccc6s5)c4c3)nc2C(=O)O)cnn1CC12CC3(C)CC(C)(C1)CC(OCCNCCS(=O)(=O)O)(C3)C2 [Example 1.70, 6-[4-(1,3-benzothiazol-2-ylcarbamoyl)quinolin-6-yl]-3-{1-[(3,5-dimethyl-7-{2-[(2-sulfoethyl)amino]ethoxy}tricyclo[3.3.1.1^3,7]dec-1-yl)methyl]-5-methyl-1H-pyrazol-4-yl}pyridine-2-carboxylic acid] | 0.275 nM | > 11.00 | 193 nM
7 | Cc1c(-c2ccc(-c3cc4cccc(C(=O)Nc5nc6ccccc6s5)c4[nH]3)nc2C(=O)O)cnn1CC12CC3(C)CC(C)(C1)CC(OCCNCCS(=O)(=O)O)(C3)C2 [Example 1.74, 6-[7-(1,3-benzothiazol-2-ylcarbamoyl)-1H-indol-2-yl]-3-{1-[(3,5-dimethyl-7-{2-[(2-sulfoethyl)amino]ethoxy}tricyclo[3.3.1.1^3,7]dec-1-yl)methyl]-5-methyl-1H-pyrazol-4-yl}pyridine-2-carboxylic acid] | 0.016 nM | > 11.00 | 5.7 nM
8 | Cc1c(-c2ccc(-c3ccc4c(c3)N(C(=O)Nc3nc5ccccc5s3)CCC4)nc2C(=O)O)cnn1CC12CC3(C)CC(C)(C1)CC(OCCN(C)C1CNC1)(C3)C2 [Example 1.65, 3-{1-[(3-{2-[azetidin-3-yl(methyl)amino]ethoxy}-5,7-dimethyltricyclo[3.3.1.1^3,7]dec-1-yl)methyl]-5-methyl-1H-pyrazol-4-yl}-6-[1-(1,3-benzothiazol-2-ylcarbamoyl)-1,2,3,4-tetrahydroquinolin-7-yl]pyridine-2-carboxylic acid] | 0.099 nM | > 11.00 | 
9 | CO[C@H]1O[C@@H](Cn2cc(CCCNCCOC34CC5(C)CC(C)(CC(Cn6ncc(-c7ccc(N8CCc9cccc(C(=O)Nc%10nc%11ccccc%11s%10)c9C8)nc7C(=O)O)c6C)(C5)C3)C4)nn2)[C@H](O)[C@@H](O)[C@@H]1O [Example 1.67, methyl 6-[4-(3-{[2-({3-[(4-{6-[8-(1,3-benzothiazol-2-ylcarbamoyl)-3,4-dihydroisoquinolin-2 (1H)-yl]-2-carboxypyridin-3-yl}-5-methyl-1H-pyrazol-1-yl)methyl]-5,7-dimethyltricyclo[3.3.1.1^3,7]dec-1-yl}oxy)ethyl]amino}propyl)-1H-1,2,3-triazol-1-yl]-6-deoxy-beta-L-glucopyranoside] | 0.51 nM | > 11.00 | 
10 | Cc1c(-c2ccc(N3CCc4cccc(C(=O)Nc5nc6ccccc6s5)c4C3)nc2C(=O)O)cnn1CC12CC3(C)CC(C)(C1)CC(OCCNCCc1cn([C@@H]4O[C@H](C(=O)O)[C@@H](O)[C@H](O)[C@H]4O)nn1)(C3)C2 [Example 1.9, 8-(1,3-benzothiazol-2-ylcarbamoyl)-2-{6-carboxy-5-[1-({3-[2-({2-[1-(beta-D-glucopyranuronosyl)-1H-1,2,3-triazol-4-yl]ethyl}amino)ethoxy]-5,7-dimethyltricyclo[3.3.1.1^3,7]dec-1-yl}methyl)-5-methyl-1H-pyrazol-4-yl]pyridin-2-yl}-1,2,3,4-tetrahydroisoquinoline] | 0.047 nM | > 12.00 | 
11 | Cc1c(-c2ccc(N3CCc4cccc(C(=O)Nc5nc6ccccc6s5)c4C3)nc2C(=O)O)cnn1CC12CC3(C)CC(C)(C1)CC(SCCNCCS(=O)(=O)O)(C3)C2 [Example 1.90, 6-[8-(1,3-benzothiazol-2-ylcarbamoyl)-3,4-dihydroisoquinolin-2 (1H)-yl]-3-(1-{[3,5-dimethyl-7-((2-[(2-sulfoethyl)amino]ethyl)sulfanyl)tricyclo[3.3.1.1^3,7]dec-1-yl]methyl)-5-methyl-1H-pyrazol-4-yl)pyridine-2-carboxylic acid] | 4.2 nM | 9.89 | 
12 | Cc1c(-c2ccc(N3CCc4cccc(C(=O)Nc5nc6ccccc6s5)c4C3)nc2C(=O)O)cnn1CC12CC3(C)CC(C)(C1)CC(NC(=O)CNCCS(=O)(=O)O)(C3)C2 [Example 1.89, 6-{8-[(1,3-benzothiazol-2-yl)carbamoyl]-3,4-dihydroisoquinolin-2 (1H)-yl)-3-{1-[(3,5-dimethyl-7-{2-[(2-sulfoethyl)amino]acetamido}tricyclo[3.3.1.1^3,7]decan-1-yl)methyl]-5-methyl-1H-pyrazol-4-yl}pyridine-2-carboxylic acid] | 0.97 nM | > 11.00 | 
